Measured values from the supplement of paper PMC13207355.

Assays:
Conditions in all cases: exposure time: 72 h
E34 [1] = patient-derived glioblastoma stem cells of proneural subtype; experiment: surviving fraction (nuclei count normalised to DMSO); higher = more cells surviving (less toxic)
E31 [2] = patient-derived glioblastoma stem cells of proneural subtype; experiment: as above
FT3469 [3] = normal neural stem cell line; experiment: as above
E28 [4] = patient-derived glioblastoma stem cells of classical subtype; experiment: as above
E13 [5] = patient-derived glioblastoma stem cells of classical subtype; experiment: as above
E21 [6] = patient-derived glioblastoma stem cells of mesenchymal subtype; experiment: as above
E57 [7] = patient-derived glioblastoma stem cells of mesenchymal subtype; experiment: as above
E34 [8] = experiment: phenotypic distance (Euclidean, principal components) from DMSO controls (arbitrary units); higher = stronger morphological change
E31 [9] = experiment: as above
FT3469 [10] = experiment: as above
E28 [11] = experiment: as above
E13 [12] = experiment: as above
E21 [13] = experiment: as above
E57 [14] = experiment: as above
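Throughout, for phenotypic distance (Euclidean, principal components) from DMSO controls: cell Painting imaging in 384-well plates, CellProfiler features reduced to at least 20 principal components, Euclidean distance versus same-plate DMSO vehicle wells (0.1% v/v), median over six images per well.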
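Throughout, for surviving fraction (nuclei count normalised to DMSO): nuclei counted by high-content imaging of Hoechst-stained cells in laminin-coated 384-well plates, relative to 0.1% DMSO vehicle wells, with staurosporine as cell-death control.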

CC(=O)OC[C@H]1O[C@@H]([S-])[C@H](OC(C)=O)[C@@H](OC(C)=O)[C@@H]1OC(C)=O.CCP(CC)CC.[Au+] [Auranofin]
Conditions | phenotypic distance | surviving fraction
E13 [5], 4.1 nM | – | 0.841
E13 [5], 12.3 nM | – | 1.05
E13 [5], 37 nM | – | 1.04
E13 [5], 111.1 nM | – | 1.09
E13 [5], 333.3 nM | – | 0.968
E13 [5], 1000 nM | – | 0.851
E13 [5], 3000 nM | – | 0.227
E13 [12], 4.1 nM | 0.698 | –
E13 [12], 12.3 nM | 0.74 | –
E13 [12], 37 nM | 0.381 | –
E13 [12], 111.1 nM | 0.629 | –
E13 [12], 333.3 nM | 0.569 | –
E13 [12], 1000 nM | 0.919 | –
E13 [12], 3000 nM | 5.8 | –
E21 [6], 4.1 nM | – | 0.997
E21 [6], 12.3 nM | – | 1
E21 [6], 37 nM | – | 1.02
E21 [6], 111.1 nM | – | 0.947
E21 [6], 333.3 nM | – | 0.979
E21 [6], 1000 nM | – | 0.84
E21 [6], 3000 nM | – | 0.255
E21 [13], 4.1 nM | 0.692 | –
E21 [13], 12.3 nM | 0.512 | –
E21 [13], 37 nM | 1.07 | –
E21 [13], 111.1 nM | 0.632 | –
E21 [13], 333.3 nM | 1.15 | –
E21 [13], 1000 nM | 2.27 | –
E21 [13], 3000 nM | 5.54 | –
E28 [4], 4.1 nM | – | 1.1
E28 [4], 12.3 nM | – | 0.95
E28 [4], 37 nM | – | 0.888
E28 [4], 111.1 nM | – | 0.581
E28 [4], 333.3 nM | – | 0.418
E28 [4], 1000 nM | – | 0.177
E28 [4], 3000 nM | – | 0.00427
E28 [11], 4.1 nM | 1.07 | –
E28 [11], 12.3 nM | 0.679 | –
E28 [11], 37 nM | 0.773 | –
E28 [11], 111.1 nM | 1.25 | –
E28 [11], 333.3 nM | 1.81 | –
E28 [11], 1000 nM | 2.9 | –
E28 [11], 3000 nM | 11.4 | –
E31 [2], 4.1 nM | – | 1.17
E31 [2], 12.3 nM | – | 0.911
E31 [2], 37 nM | – | 1.03
E31 [2], 111.1 nM | – | 1.13
E31 [2], 333.3 nM | – | 1.09
E31 [2], 1000 nM | – | 0.723
E31 [2], 3000 nM | – | 0.00651
E31 [9], 4.1 nM | 1.04 | –
E31 [9], 12.3 nM | 0.586 | –
E31 [9], 37 nM | 0.373 | –
E31 [9], 111.1 nM | 1.33 | –
E31 [9], 333.3 nM | 1.16 | –
E31 [9], 1000 nM | 1.4 | –
E31 [9], 3000 nM | 8.52 | –
E34 [1], 4.1 nM | – | 0.913
E34 [1], 12.3 nM | – | 1.08
E34 [1], 37 nM | – | 1.18
E34 [1], 111.1 nM | – | 1.01
E34 [1], 333.3 nM | – | 0.92
E34 [1], 1000 nM | – | 0.993
E34 [1], 3000 nM | – | 0.269
E34 [8], 4.1 nM | 0.444 | –
E34 [8], 12.3 nM | 0.588 | –
E34 [8], 37 nM | 1.03 | –
E34 [8], 111.1 nM | 0.434 | –
E34 [8], 333.3 nM | 1.04 | –
E34 [8], 1000 nM | 0.939 | –
E34 [8], 3000 nM | 5.66 | –
E57 [7], 4.1 nM | – | 0.985
E57 [7], 12.3 nM | – | 0.96
E57 [7], 37 nM | – | 1.12
E57 [7], 111.1 nM | – | 0.993
E57 [7], 333.3 nM | – | 0.966
E57 [7], 1000 nM | – | 0.884
E57 [7], 3000 nM | – | 0.0901
E57 [14], 4.1 nM | 0.808 | –
E57 [14], 12.3 nM | 0.759 | –
E57 [14], 37 nM | 0.726 | –
E57 [14], 111.1 nM | 0.677 | –
E57 [14], 333.3 nM | 1.12 | –
E57 [14], 1000 nM | 2.3 | –
E57 [14], 3000 nM | 9.6 | –
FT3469 [3], 4.1 nM | – | 1.13
FT3469 [3], 12.3 nM | – | 1.02
FT3469 [3], 37 nM | – | 0.955
FT3469 [3], 111.1 nM | – | 0.76
FT3469 [3], 333.3 nM | – | 0.898
FT3469 [3], 1000 nM | – | 0.909
FT3469 [3], 3000 nM | – | 0.0719
FT3469 [10], 4.1 nM | 0.766 | –
FT3469 [10], 12.3 nM | 0.505 | –
FT3469 [10], 37 nM | 0.606 | –
FT3469 [10], 111.1 nM | 1.02 | –
FT3469 [10], 333.3 nM | 0.835 | –
FT3469 [10], 1000 nM | 1.28 | –
FT3469 [10], 3000 nM | 5.55 | –

CC1=C(/C=C/C(C)=C/C=C/C(C)=C/C(=O)Nc2ccc(O)cc2)C(C)(C)CCC1 [Retinoic acid p-hydroxyanilide]
Conditions | phenotypic distance | surviving fraction
E13 [5], 4.1 nM | – | 0.963
E13 [5], 12.3 nM | – | 0.967
E13 [5], 37 nM | – | 1.09
E13 [5], 333.3 nM | – | 1.07
E13 [5], 1000 nM | – | 0.734
E13 [5], 3000 nM | – | 0.00947
E13 [12], 4.1 nM | 0.545 | –
E13 [12], 12.3 nM | 0.333 | –
E13 [12], 37 nM | 0.641 | –
E13 [12], 333.3 nM | 3.32 | –
E13 [12], 1000 nM | 4.24 | –
E13 [12], 3000 nM | 9.85 | –
E21 [6], 4.1 nM | – | 1.05
E21 [6], 12.3 nM | – | 0.947
E21 [6], 37 nM | – | 0.953
E21 [6], 333.3 nM | – | 1.02
E21 [6], 1000 nM | – | 0.781
E21 [6], 3000 nM | – | 0.00532
E21 [13], 4.1 nM | 0.779 | –
E21 [13], 12.3 nM | 0.993 | –
E21 [13], 37 nM | 0.775 | –
E21 [13], 333.3 nM | 1.03 | –
E21 [13], 1000 nM | 2.42 | –
E21 [13], 3000 nM | 10.8 | –
E28 [4], 4.1 nM | – | 1.11
E28 [4], 12.3 nM | – | 0.963
E28 [4], 37 nM | – | 1.13
E28 [4], 333.3 nM | – | 1.08
E28 [4], 1000 nM | – | 0.931
E28 [4], 3000 nM | – | 0.00413
E28 [11], 4.1 nM | 0.643 | –
E28 [11], 12.3 nM | 0.734 | –
E28 [11], 37 nM | 0.511 | –
E28 [11], 333.3 nM | 0.842 | –
E28 [11], 1000 nM | 1.73 | –
E28 [11], 3000 nM | 19.3 | –
E31 [2], 4.1 nM | – | 0.912
E31 [2], 12.3 nM | – | 0.905
E31 [2], 37 nM | – | 0.993
E31 [2], 333.3 nM | – | 1.05
E31 [2], 1000 nM | – | 0.927
E31 [2], 3000 nM | – | 0.00743
E31 [9], 4.1 nM | 0.825 | –
E31 [9], 12.3 nM | 0.482 | –
E31 [9], 37 nM | 0.638 | –
E31 [9], 333.3 nM | 1.69 | –
E31 [9], 1000 nM | 2.86 | –
E31 [9], 3000 nM | 18.6 | –
E34 [1], 4.1 nM | – | 1.28
E34 [1], 12.3 nM | – | 1.05
E34 [1], 37 nM | – | 0.937
E34 [1], 333.3 nM | – | 1.08
E34 [1], 1000 nM | – | 0.967
E34 [1], 3000 nM | – | 0.00196
E34 [8], 4.1 nM | 0.884 | –
E34 [8], 12.3 nM | 0.569 | –
E34 [8], 37 nM | 0.817 | –
E34 [8], 333.3 nM | 1.4 | –
E34 [8], 1000 nM | 2.38 | –
E34 [8], 3000 nM | 19.6 | –
E57 [7], 4.1 nM | – | 1.12
E57 [7], 12.3 nM | – | 1.08
E57 [7], 37 nM | – | 1.05
E57 [7], 333.3 nM | – | 1.06
E57 [7], 1000 nM | – | 1.03
E57 [7], 3000 nM | – | 0.00394
E57 [14], 4.1 nM | 0.591 | –
E57 [14], 12.3 nM | 0.726 | –
E57 [14], 37 nM | 0.599 | –
E57 [14], 333.3 nM | 0.631 | –
E57 [14], 1000 nM | 1.92 | –
E57 [14], 3000 nM | 15.3 | –
FT3469 [3], 4.1 nM | – | 1
FT3469 [3], 12.3 nM | – | 1.04
FT3469 [3], 37 nM | – | 1.04
FT3469 [3], 333.3 nM | – | 0.89
FT3469 [3], 1000 nM | – | 0.901
FT3469 [3], 3000 nM | – | 0.0056
FT3469 [10], 4.1 nM | 0.589 | –
FT3469 [10], 12.3 nM | 0.564 | –
FT3469 [10], 37 nM | 0.708 | –
FT3469 [10], 333.3 nM | 1.89 | –
FT3469 [10], 1000 nM | 2.61 | –
FT3469 [10], 3000 nM | 17.7 | –
